Source: paper PMC12390684 (Viruses, 2025)

Assays:
P4 MAGI CCR5+ cells = test: Cytotoxicity (CellTiter 96 AQueous); format: cell-based
[1] = Cytotoxicity (CellTiter 96 AQueous); format: cell-based; settings: human
[2] = molecular target: T1, IN-GCN2 interaction (6xHis-IN / GST-GCN2) (UniProt P04585+Q9P2K8); test: biochemical; format: binding, HIV-1 IN; human GCN2; settings: for IC50: IC50, inhibition of IN-GCN2 interaction, SAR study, fresh dilutions from powder, at least three independent experiments
[3] = molecular target: T1, IN-GCN2 interaction (6xHis-IN / GST-GCN2); set-up: method as in earlier work; settings: single dose 100 µM, previous data ref 26; cited from earlier work
[4] = molecular target: phosphorylation of IN by GCN2 (UniProt P04585+Q9P2K8); set-up: method as in earlier work; settings: previous study ref 26; cited from earlier work
GCN2 = molecular target: T2, GCN2 (Homo sapiens, UniProt Q9P2K8); set-up: method as in earlier work; settings: previous study ref 26; cited from earlier work
T2 sequence (Q9P2K8 192-1024): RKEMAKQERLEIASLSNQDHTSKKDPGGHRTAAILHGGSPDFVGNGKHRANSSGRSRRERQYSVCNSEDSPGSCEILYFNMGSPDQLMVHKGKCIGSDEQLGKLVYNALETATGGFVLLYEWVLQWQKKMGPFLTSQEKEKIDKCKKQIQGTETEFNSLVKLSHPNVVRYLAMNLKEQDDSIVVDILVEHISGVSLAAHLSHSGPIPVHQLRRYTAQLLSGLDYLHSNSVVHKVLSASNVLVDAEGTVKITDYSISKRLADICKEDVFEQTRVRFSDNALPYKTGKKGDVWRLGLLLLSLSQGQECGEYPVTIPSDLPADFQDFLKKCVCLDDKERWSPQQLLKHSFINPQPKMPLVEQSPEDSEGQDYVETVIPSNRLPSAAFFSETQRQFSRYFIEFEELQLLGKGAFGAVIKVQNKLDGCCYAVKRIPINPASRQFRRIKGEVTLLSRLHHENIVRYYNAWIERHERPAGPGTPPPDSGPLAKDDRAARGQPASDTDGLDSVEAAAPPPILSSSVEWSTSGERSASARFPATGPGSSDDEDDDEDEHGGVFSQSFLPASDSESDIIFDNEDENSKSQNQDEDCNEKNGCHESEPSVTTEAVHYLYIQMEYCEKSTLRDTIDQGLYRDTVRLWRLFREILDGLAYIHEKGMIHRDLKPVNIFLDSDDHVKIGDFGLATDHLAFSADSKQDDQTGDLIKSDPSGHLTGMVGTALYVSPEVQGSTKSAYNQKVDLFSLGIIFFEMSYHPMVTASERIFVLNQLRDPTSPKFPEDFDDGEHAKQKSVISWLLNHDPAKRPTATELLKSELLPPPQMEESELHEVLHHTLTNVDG

Compound: COc1cccc2c1C(=O)c1c(O)c3c(c(O)c1C2=O)CC(O)(C(=O)CO)CC3OC1CC(N2CCOCC2C#N)C(O)C(C)O1 (centres unmarked) [Compound 1p]
- lowest dose used, at which compound was still toxic (P4 MAGI CCR5+ cells; human): about 2 nM
- CC50 ([1]; 24 h, read-out: CC50): < 0.002 µM
- IC50 [2]: 61.1 µM

Compound: COc1cccc2c1C(=O)c1c(O)c3c(c(O)c1C2=O)C[C@@](O)(C(C)=O)C[C@@H]3O[C@H]1C[C@H](N)[C@H](O)[C@H](C)O1 [NSC82151]
- inhibition of IN-GCN2 interaction [3]: around 70%
- IN-GCN2 interaction (%) ([2]; screen, single dose 100 µM, single replicate, residual AlphaLISA signal normalized to DMSO control): 50.79%

Compound: CC(=O)[C@]1(O)Cc2c(O)c3c(c(O)c2[C@@H](O[C@H]2C[C@H](N)[C@H](O)[C@H](C)O2)C1)C(=O)c1ccccc1C3=O [NSC256439]
- inhibition of IN-GCN2 interaction [3]: around 70%

Compound: O=C1c2c(O)ccc(O)c2C(=O)c2c(NCCNCCO)ccc(NCCNCCO)c21 [NSC279836, mitoxantrone, reference compound]
- CC50 at 24 h [1]: > 5 µM
- apparent IC50, inhibition of IN phosphorylation [4]: low micromolar range
- IC50 [2]: 2.4 µM
- concentration up to which GCN2 autophosphorylation was not affected (GCN2): 300 µM

Compound: COc1cc2c3c(c1O)-c1cc(N(Cc4ccccc4)Cc4ccccc4)ccc1CC3N(C)CC2 (centres unmarked) [NSC785176]
- CC50 (P4 MAGI CCR5+ cells; 24 h): > 5 µM
